Results as given in PubChem BioAssay (NCI).
Where “and” joins values, the source holds several entries; their conditions need not be identical. Equal values may be shown once.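 Five concentrations, 48 hours, 96-well plates. GI50 = concentration required for 50% inhibition of growth. TGI: concentration producing complete growth inhibition.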

Test system: HT29 colon
Experiment: NCI anticancer screen, dose series, 48 h

SMILES | TGI | GI50 [µM]
COc1ccc2ccc3oc(=O)c(C)cc3c2c1 | > 100 µM | –
CCCCCCN(CCCCCC)C(=S)N/N=C(\C)c1ccccn1 | 4.29 µM | –
CN(C)c1nc(Oc2nc(N(C)C)nc(N(C)C)n2)nc(N(C)C)n1 | > 100 µM | –
O=c1c(F)cn2c(=O)n1CCCCCCCn1c(=O)c(F)cn(c1=O)CCCCCCC2 | > 100 µM | –
O=C(ON=C1c2ccccc2C(Br)C(Br)c2ccccc21)c1ccccc1 (stereo unspecified) | 38 µM | –
CN(C)CCn1c(=O)c2ccc(NCCCN(C)CCCNc3ccc4c(=O)n(CCN(C)C)c(=O)n5c6ccc(O)cc6c(=O)c3c45)c3c(=O)c4cc(O)ccc4n(c1=O)c23 | 1.05 µM | –
Cn1c2ccccc2n2c3ncccc3c(=O)c(C#N)c12 | > 100 µM | –
S=C(Cc1ccc2c(c1)Sc1ccccc1O2)N1CCOCC1 | > 100 µM | –
C[n+]1cc2cc(O)c(O)cc2c2ccc3cc(O)c(O)cc3c21 | 66.9 µM | –
COc1ccc(N=Nc2c(-c3c(OC)cc4occc4c3OC)[nH]c(=O)c(C#N)c2C)cc1 | > 100 µM | –
O=C(/C=C/c1ccc(Cl)cc1)Oc1ccc(C=C2CCC/C(=C\c3ccc(OC(=O)/C=C/c4ccc(Cl)cc4)cc3)C2=O)cc1 | > 100 µM | –
c1ccc2c(c1)SCCCS2 | > 100 µM | –
COc1ccc2c(c1)c1c(n2CCN2CCCCC2)-c2cccc(OC)c2CC1 | 17.6 µM | –
O=[N+]([O-])c1ccc(C[P+]2(c3ccccc3)CCCCC2)cc1 | > 100 µM | –
COc1ccc2nc(NC(=O)/C(C#N)=C/c3ccccc3)sc2c1 | > 96.1 µM | –
Cc1c(C)n(-c2ccccc2)c2nc(S(C)=O)nc(S(C)=O)c12 (stereo unspecified) | 25.1 µM | –
CC1(C)CC(=O)C2=C(C1)C(c1ccccc1Cl)C1C(=O)CC(C)(C)CC1(O)O2 (stereo unspecified) | > 100 µM | –
Cn1nc(-c2ccc(S(=O)(=O)/N=C(\NN)Nc3ccc(Cl)cc3)s2)cc1C(F)(F)F | 30.4 µM | –
C[C@]12CCC3[C@@H](CCC45OC4C(=O)CC[C@]35C)C1Cc1cnn(-c3ccc(F)cc3)c1N2 (stereo partly specified) | 33 µM | –
CCc1c(O)cc(=O)oc1-c1ccc(OC)c(OC)c1 | > 100 µM | –

SMILES | TGI | GI50 [µM]
Cc1ccc2c(c1C)C(=O)C1(Cc3cc4c(cc3C1=O)CCC4)C2 (stereo unspecified) | > 100 µM | –
CCCCI(O)OS(=O)(=O)c1ccc(C)cc1 | > 100 µM | –
O=C(CCc1cc(O)cc(O)c1)NCCc1cc(OCc2ccccc2)cc(OCc2ccccc2)c1 | 41.9 µM | –
Clc1cccc(-c2sc(-c3cccs3)cc2Cc2cccs2)c1 | > 10 µM | –
c1ccc(C2=NC3OC2c2ccccc23)cc1 (stereo unspecified) | > 10 µM | –
O=c1oc2ccc3ccccc3c2cc1-c1cn2ccsc2n1 | 37.8 µM | –
CCOC(=O)CSc1nc(N)c2c(-c3ccccc3)c3c(nc2n1)CCCC3 | > 100 µM | –
COC(=O)/C=C(/C=C1/C(C#N)=C(N)N(c2ccc(Cl)cc2)C1(C)/C(=C\C(=O)OC)C(=O)OC)C(=O)OC (stereo unspecified) | 39 µM | –
Cc1c2ccnc(C(N)=O)c2c(C)c2c1[nH]c1ccccc12 | 23.2 µM and 20.4 µM | 4.12
Cc1ccccc1-c1nc2c(N)nc(N)nc2nc1N | > 100 µM | –
O=c1c2c3c(sc2[nH]c(=S)n1-c1ccccc1)CCCc1ccc([N+](=O)[O-])cc1-3 | 61.3 µM | –
CC1CC(N2CCOCC2)=Nc2ccccc2N1C (stereo unspecified) | > 100 µM | –
CCOC1C=CC(=O)C(CO)O1 (stereo unspecified) | 25.4 µM | –
CC(C)C(Br)CCC1=CCC(Br)(Br)C1 (stereo unspecified) | 28.6 µM | –
Cc1cc([N+](=O)[O-])c(C)c2c1[nH]c1ccc(Cl)cc12 | > 100 µM | –
COCOc1ccc(C(=O)Oc2cccc3c2OC(C)(C)O3)c(OCOC)c1 | > 100 µM | –
COc1ccc(CNc2cnc3ccc(N)cc3n2)cc1 | > 100 µM | –
COc1cc2ccc3c4cc(OC)c(OC)cc4c[n+](C)c3c2cc1O | > 100 µM | –
COc1cccc(C2c3cc4c(cc3OC(O)C2C)OCO4)c1OC (stereo unspecified) | 24.5 µM | –
CCOC(=O)/C=C/c1nc(C#N)c(N)o1 | > 100 µM | –

Test system: UO-31 renal
Experiment: NCI anticancer screen, dose series, 48 h

SMILES | TGI | GI50 [µM]
COc1ccc2ccc3oc(=O)c(C)cc3c2c1 | > 100 µM | –
CCCCCCN(CCCCCC)C(=S)N/N=C(\C)c1ccccn1 | 3.07 µM | –
CN(C)c1nc(Oc2nc(N(C)C)nc(N(C)C)n2)nc(N(C)C)n1 | > 100 µM | –
O=c1c(F)cn2c(=O)n1CCCCCCCn1c(=O)c(F)cn(c1=O)CCCCCCC2 | > 100 µM | –
O=C(ON=C1c2ccccc2C(Br)C(Br)c2ccccc21)c1ccccc1 (stereo unspecified) | 8.32 µM | –
CN(C)CCn1c(=O)c2ccc(NCCCN(C)CCCNc3ccc4c(=O)n(CCN(C)C)c(=O)n5c6ccc(O)cc6c(=O)c3c45)c3c(=O)c4cc(O)ccc4n(c1=O)c23 | 0.452 µM | –
Cn1c2ccccc2n2c3ncccc3c(=O)c(C#N)c12 | 43.1 µM | –
S=C(Cc1ccc2c(c1)Sc1ccccc1O2)N1CCOCC1 | > 100 µM | –
C[n+]1cc2cc(O)c(O)cc2c2ccc3cc(O)c(O)cc3c21 | 5.61 µM | –
COc1ccc(N=Nc2c(-c3c(OC)cc4occc4c3OC)[nH]c(=O)c(C#N)c2C)cc1 | > 100 µM | –
O=C(/C=C/c1ccc(Cl)cc1)Oc1ccc(C=C2CCC/C(=C\c3ccc(OC(=O)/C=C/c4ccc(Cl)cc4)cc3)C2=O)cc1 | > 100 µM | –
c1ccc2c(c1)SCCCS2 | > 100 µM | –
COc1ccc2c(c1)c1c(n2CCN2CCCCC2)-c2cccc(OC)c2CC1 | 24.7 µM | –
O=[N+]([O-])c1ccc(C[P+]2(c3ccccc3)CCCCC2)cc1 | > 100 µM | –
COc1ccc2nc(NC(=O)/C(C#N)=C/c3ccccc3)sc2c1 | > 100 µM | –
Cc1c(C)n(-c2ccccc2)c2nc(S(C)=O)nc(S(C)=O)c12 (stereo unspecified) | 20.2 µM | –
CC1(C)CC(=O)C2=C(C1)C(c1ccccc1Cl)C1C(=O)CC(C)(C)CC1(O)O2 (stereo unspecified) | > 100 µM | –
Cn1nc(-c2ccc(S(=O)(=O)/N=C(\NN)Nc3ccc(Cl)cc3)s2)cc1C(F)(F)F | 28 µM | –
C[C@]12CCC3[C@@H](CCC45OC4C(=O)CC[C@]35C)C1Cc1cnn(-c3ccc(F)cc3)c1N2 (stereo partly specified) | > 100 µM | –
CCc1c(O)cc(=O)oc1-c1ccc(OC)c(OC)c1 | > 100 µM | –
Cc1ccc2c(c1C)C(=O)C1(Cc3cc4c(cc3C1=O)CCC4)C2 (stereo unspecified) | > 100 µM | –

SMILES | TGI | GI50 [µM]
CCCCI(O)OS(=O)(=O)c1ccc(C)cc1 | 55.4 µM | –
O=C(CCc1cc(O)cc(O)c1)NCCc1cc(OCc2ccccc2)cc(OCc2ccccc2)c1 | 15.3 µM | –
Clc1cccc(-c2sc(-c3cccs3)cc2Cc2cccs2)c1 | > 10 µM | –
O=c1oc2ccc3ccccc3c2cc1-c1cn2ccsc2n1 | 31.7 µM | –
CCOC(=O)CSc1nc(N)c2c(-c3ccccc3)c3c(nc2n1)CCCC3 | > 100 µM | –
COC(=O)/C=C(/C=C1/C(C#N)=C(N)N(c2ccc(Cl)cc2)C1(C)/C(=C\C(=O)OC)C(=O)OC)C(=O)OC (stereo unspecified) | 41.2 µM | –
Cc1c2ccnc(C(N)=O)c2c(C)c2c1[nH]c1ccccc12 | 25.2 µM and 21.7 µM | 5.6
Cc1ccccc1-c1nc2c(N)nc(N)nc2nc1N | > 100 µM | –
O=c1c2c3c(sc2[nH]c(=S)n1-c1ccccc1)CCCc1ccc([N+](=O)[O-])cc1-3 | > 100 µM | –
CCOC(=O)c1c(N2CCCC2)[nH]c(=O)c(C(c2ccc(OC)cc2)c2c(O)c(C(=O)OCC)c(N3CCCC3)[nH]c2=O)c1O | > 100 µM | –
CC1CC(N2CCOCC2)=Nc2ccccc2N1C (stereo unspecified) | > 100 µM | –
CCOC1C=CC(=O)C(CO)O1 (stereo unspecified) | 4.77 µM | –
COC(=O)CC(=O)OSc1ccccc1 | 24.7 µM | –
CC(C)C(Br)CCC1=CCC(Br)(Br)C1 (stereo unspecified) | 21.9 µM | –
Cc1cc([N+](=O)[O-])c(C)c2c1[nH]c1ccc(Cl)cc12 | > 100 µM | –
COCOc1ccc(C(=O)Oc2cccc3c2OC(C)(C)O3)c(OCOC)c1 | > 100 µM | –
COC(=O)CNC(=O)C(CSC(=O)OCC1c2ccccc2-c2ccccc21)NC(=O)CCC(NC(=O)OCC1c2ccccc2-c2ccccc21)C(=O)OC (stereo unspecified) | 35 µM | –
COc1ccc(CNc2cnc3ccc(N)cc3n2)cc1 | > 100 µM | –
COc1cc2ccc3c4cc(OC)c(OC)cc4c[n+](C)c3c2cc1O | > 100 µM | –
CCOC(=O)/C=C/c1nc(C#N)c(N)o1 | > 100 µM | –

Test system: SF-295 CNS
Experiment: NCI anticancer screen, dose series, 48 h

SMILES | TGI [µM]
COc1ccc2ccc3oc(=O)c(C)cc3c2c1 | > 100
CCCCCCN(CCCCCC)C(=S)N/N=C(\C)c1ccccn1 | 3.19
CN(C)c1nc(Oc2nc(N(C)C)nc(N(C)C)n2)nc(N(C)C)n1 | > 100
O=c1c(F)cn2c(=O)n1CCCCCCCn1c(=O)c(F)cn(c1=O)CCCCCCC2 | > 100
O=C(ON=C1c2ccccc2C(Br)C(Br)c2ccccc21)c1ccccc1 (stereo unspecified) | 36.4
CN(C)CCn1c(=O)c2ccc(NCCCN(C)CCCNc3ccc4c(=O)n(CCN(C)C)c(=O)n5c6ccc(O)cc6c(=O)c3c45)c3c(=O)c4cc(O)ccc4n(c1=O)c23 | 2.33
Cn1c2ccccc2n2c3ncccc3c(=O)c(C#N)c12 | 48.4
S=C(Cc1ccc2c(c1)Sc1ccccc1O2)N1CCOCC1 | > 100
C[n+]1cc2cc(O)c(O)cc2c2ccc3cc(O)c(O)cc3c21 | 38.8
COc1ccc(N=Nc2c(-c3c(OC)cc4occc4c3OC)[nH]c(=O)c(C#N)c2C)cc1 | > 100
O=C(/C=C/c1ccc(Cl)cc1)Oc1ccc(C=C2CCC/C(=C\c3ccc(OC(=O)/C=C/c4ccc(Cl)cc4)cc3)C2=O)cc1 | > 100
c1ccc2c(c1)SCCCS2 | > 100
COc1ccc2c(c1)c1c(n2CCN2CCCCC2)-c2cccc(OC)c2CC1 | > 100
O=[N+]([O-])c1ccc(C[P+]2(c3ccccc3)CCCCC2)cc1 | > 100
COc1ccc2nc(NC(=O)/C(C#N)=C/c3ccccc3)sc2c1 | > 100
Cc1c(C)n(-c2ccccc2)c2nc(S(C)=O)nc(S(C)=O)c12 (stereo unspecified) | 32.2
CC1(C)CC(=O)C2=C(C1)C(c1ccccc1Cl)C1C(=O)CC(C)(C)CC1(O)O2 (stereo unspecified) | > 31.6
Cn1nc(-c2ccc(S(=O)(=O)/N=C(\NN)Nc3ccc(Cl)cc3)s2)cc1C(F)(F)F | 31.3
C[C@]12CCC3[C@@H](CCC45OC4C(=O)CC[C@]35C)C1Cc1cnn(-c3ccc(F)cc3)c1N2 (stereo partly specified) | > 100
CCc1c(O)cc(=O)oc1-c1ccc(OC)c(OC)c1 | > 100
Cc1ccc2c(c1C)C(=O)C1(Cc3cc4c(cc3C1=O)CCC4)C2 (stereo unspecified) | > 100
CCCCI(O)OS(=O)(=O)c1ccc(C)cc1 | > 100
O=C(CCc1cc(O)cc(O)c1)NCCc1cc(OCc2ccccc2)cc(OCc2ccccc2)c1 | 25.8
